Reference: patent EP4778922A1, “BICYCLIC COMPOUND, AND PREPARATION METHOD THEREFOR AND PHARMACEUTICAL USE THEREOF” (Shanghai Jeyou Pharmaceutical Co., Ltd., priority 2023, dated 2025)
Where two headings read alike, the source gives them in different places.

Legend:
[1] = tested on: 22RV1 cells; assay: Cell proliferation inhibition assay in 22RV1 cells (CellTiter-Glo, 7 days); type: cell-based, human; details: Homo sapiens
Description: • 1. The human prostate cancer cell lines 22RV1 and LNCaP were purchased from ATCC. […] The cell concentration was adjusted to an appropriate concentration (determined based on the results of cell density optimization experiments), and the cells were seeded into a 96-well plate. A 100 µL cell suspension was added, resulting in 3000 cells per well. […] On the second day, for 22Rv1 cells, test compounds at different concentrations were added, and the cells were incubated at 37°C in a 5% CO2 incubator for 7 days; for LNCaP cells, test compounds at different concentrations were added first, and after 1 hour of treatment, 0.2 nM DHT was added. The cells were then incubated at 37°C in a 5% CO2 incubator for 7 days. • 4. After the incubation period, a volume of CellTiter-Glo detection reagent equal to the volume of the culture medium was added to each well. The plate was shaken and mixed thoroughly for 5 minutes, then incubated at room temperature for 10 minutes. Readings were taken using a PerkinElmer EnVision microplate reader. • 5.
The IC50 curve was fitted and the IC50 value was calculated using the software GraphPad Prism 8 with the calculation formula XY-analysis/Nonlinear regression (curve fit)/Dose response-Inhibition/log (inhibitor) vs. response-Variable slope (four parameters).

[2] = Mouse pharmacokinetic test; type: in vivo, ICR mice; details: 30 mg/kg, PO-30mpk; for Tmax: read-out: Tmax
Description: Formulation preparation: The dosing solutions were prepared on the day of administration.
Six healthy male naive ICR mice weighing 25-30 g were selected and divided into two groups (intravenous and oral groups), with three mice in each group, and administered a single dose. […] Feeding was resumed 4 h after administration. Timing was initiated following intravenous and oral administration. […] The collected whole blood was briefly vortexed twice for mixing, placed on wet ice, and centrifuged at 4°C and 8000 rpm for 5 min within 1 h. The supernatant plasma was collected and stored at -80°C until processing and analysis. Table 3: Pharmacokinetics in mice

SMILES	IC50 ([1]; 168 h) [nM]	further results
CC(C)(c1ccc(-c2ccc(OCc3ccnc(N4CC(S(=N)(=O)C5CC5)C4)n3)cc2)cc1)c1cc(Cl)c(OCCCl)c(C#N)c1 (racemic) [Compound 295]	–	IC50 ([1]; 22Rv1, 168 h): 330 nM
CC(C)(c1ccc(-c2ccc(OCCOc3nccc(N=S4(=O)CCOCC4)n3)cc2)cc1)c1cc(Cl)c(OCCCl)c(C#N)c1 [Compound 205]	430	–
CC(C)(c1ccc(-c2ccc(OCc3ccnc(N=S4(=O)CCOCC4)n3)cc2)cc1)c1cc(Cl)c(OCCCl)c(C#N)c1 [Compound 43]	300	–
CC(C)(c1ccc(-c2ccc(OCc3ccnc(P(C)(C)=O)n3)cc2)cc1)c1cc(F)c2c(cnn2CCCl)c1 [Compound 280]	1270	–
CC(C)(c1ccc(-c2ccc(OC3CCN(c4ccnc(N5CC(S(C)(=O)=O)C5)n4)CC3)nc2)cc1)c1cc(Cl)c(OCCCl)c(C#N)c1 [Compound 148]	770	–
CC(=O)N1CCS(=O)(=Nc2nccc(COc3ccc(-c4ccc(C(C)(C)c5cc(Cl)c(OCCCl)c(C#N)c5)cc4)cc3)n2)CC1 [Compound 218]	370	–
CC(C)(c1ccc(-c2ccc(OCc3ccnc(N=S4(=O)CCN(C5COC5)CC4)n3)cc2)cc1)c1cc(Cl)c(OCCCl)c(C#N)c1 [Compound 223]	510	–
CC(C)(c1ccc(-c2ccc(OCC3CC(CN4CC5(COC5)C4)C3)cc2)cc1)c1cc(Cl)c(OCCCl)c(C#N)c1 (centres unmarked) [Compound 196]	860	–
CC(C)(c1ccc(-c2cnc(OCc3ccnc(N=S4(=O)CCCC4)n3)nc2)cc1)c1cc(Cl)c(OCCCl)c(C#N)c1 [Compound 36]	1350	–
CC(C)(c1ccc(-c2ccc(OCc3ccnc(N4CC5(CNC5)C4)n3)cc2)cc1)c1cc(Cl)c(OCCCl)c(C#N)c1 [Compound 104]	920	–
CC(C)(c1ccc(-c2ccc(OCc3ccnc(N=S4(=O)CCOCC4)n3)nc2)cc1)c1cc(Cl)c(OCCCl)c(C#N)c1 [Compound 19]	860	–
CC(C)(c1ccc(-c2ccc(OCC3CCOCC3)cc2)cc1)c1cc(Cl)c(OCCCl)c(C#N)c1 [Compound 74]	290	–
CC(C)(c1ccc(-c2ccc(/C=C/c3cnc(N4CC5(C4)CS(=O)(=O)C5)nc3)cc2)cc1)c1cc(Cl)c(OCCCl)c(C#N)c1 [Compound 235]	610	–
CC(C)(c1ccc(-c2ccc(OCc3ccnc(P(C)(C)=O)n3)cc2)cc1)c1cnc2c(cnn2CCCl)c1 [Compound 42]	–	AUC(0-inf) ([2]; plasma): 422 µg·h/mL; Cmax ([2]; plasma): 34300 ng/mL; half-life ([2]; plasma): 4.42 h; Tmax ([2]; plasma): 3.33 h
CC(C)(c1ccc(-c2cccc(OCc3ccnc(S(C)(=O)=O)n3)c2)cc1)c1cc(Cl)c(OCCCl)c(C#N)c1 [Compound 4]	1380	–
CC(C)(c1ccc(-c2cccc(OCc3ccnc(P(C)(C)=O)n3)c2)cc1)c1cc(Cl)c(OCCCl)c(C#N)c1 [Compound 6]	–	AUC(0-inf) ([2]; in vivo): 447 µg·h/mL; Cmax ([2]; in vivo): 62800 ng/mL; half-life ([2]; in vivo): 2.2 h; Tmax ([2]; in vivo): 2.7 h
CC(C)(c1ccc(-c2ccc(OCC3CC(CN4CC5(C4)CS(=N)(=O)C5)C3)cc2)cc1)c1cc(Cl)c(OCCCl)c(C#N)c1 (centres unmarked) [Compound 307]	660	–
CC(C)(c1ccc(-c2ccc(OC3CCN(c4ccnc(N5CC(S(C)(=O)=O)C5)n4)CC3)cc2)cc1)c1cc(Cl)c(OCCCl)c(C#N)c1 [Compound 143]	900	–
CC(C)(c1ccc(-c2cnc(OCc3ccnc(N4CC(S(C)(=N)=O)C4)n3)cn2)cc1)c1cc(Cl)c(OCCCl)c(C#N)c1 (racemic) [Compound 323]	–	IC50 ([1]; 22Rv1, 168 h): 570 nM
CC(C)(c1ccc(-c2cc(F)c(OCc3ccnc(N=S4(=O)CCOCC4)n3)cn2)cc1)c1cc(Cl)c(OCCCl)c(C#N)c1 [Compound 153]	780	–
CC(C)(c1ccc(N2CCC(Oc3ccnc(P(C)(C)=O)n3)CC2)cc1)c1cc(Cl)c(OCCCl)c(C#N)c1 [Compound 10]	–	AUC(0-inf) ([2]; in vivo): 316 µg·h/mL; Cmax ([2]; in vivo): 31000 ng/mL; half-life ([2]; in vivo): 5.4 h; Tmax ([2]; in vivo): 3.3 h
CC(C)(c1ccc(-c2ccc(/C=C/c3ccnc(P(C)(C)=O)n3)cc2)cc1)c1cc(Cl)c(OCCCl)c(C#N)c1 [Compound 228]	–	AUC(0-inf) ([2]; plasma, po): 242 µg·h/mL; Cmax ([2]; plasma, po): 14500 ng/mL; half-life ([2]; plasma, po): 6 h; Tmax ([2]; plasma, po): 4 h

Continued, in another order:

IC50 ([1]; 168 h) [nM]	SMILES	further results
770	CC(C)(c1ccc(-c2ccc(OCc3ccnc(N4CCC(S(C)(=O)=O)C4)n3)cc2)cc1)c1cc(Cl)c(OCCCl)c(C#N)c1 (centres unmarked) [Compound 266]	–
530	CC(C)(c1ccc(-c2ccc(OC3CC4CCC(C3)N4c3ccnc(P(C)(C)=O)n3)nc2)cc1)c1cc(Cl)c(OCCCl)c(C#N)c1 (centres unmarked) [Compound 140]	–
130	CC(C)(c1ccc(-c2cnc(OCc3ccc(-c4cnc(P(C)(C)=O)nc4)cc3)nc2)cc1)c1cc(Cl)c(OCCCl)c(C#N)c1 [Compound 274]	–
830	CC(C)(c1ccc(-c2ccc(OCc3ccnc(N=S4(=O)CCN(CC(F)(F)F)CC4)n3)nc2)cc1)c1cc(Cl)c(OCCCl)c(C#N)c1 [Compound 261]	–
560	CNC(=O)CN1CCS(=O)(=Nc2nccc(COc3ccc(-c4ccc(C(C)(C)c5cc(Cl)c(OCCCl)c(C#N)c5)cc4)cc3)n2)CC1 [Compound 255]	–
460	CC(C)(c1ccc(-c2ccc(OCc3ccc(-c4cnc(P(C)(C)=O)nc4)cc3)cn2)cc1)c1cc(Cl)c(OCCCl)c(C#N)c1 [Compound 275]	–
860	CC(C)(c1ccc(-c2ccc(OCc3ccnc(N=S4(=O)CCN(C5CC5)CC4)n3)cn2)cc1)c1cc(Cl)c(OCCCl)c(C#N)c1 [Compound 250]	–
280	CC(C)(c1ccc(-c2ccc(OCCOc3nccc(P(C)(C)=O)n3)cc2)cc1)c1cc(Cl)c(OCCCl)c(C#N)c1 [Compound 330]	–
890	CC(C)(c1ccc(-c2ccc(Oc3ccc(-c4cnc(P(C)(C)=O)nc4)cc3)cc2)cc1)c1cc(Cl)c(OCCCl)c(C#N)c1 [Compound 270]	–
990	CC(C)(c1ccc(-c2ccc(OCc3ccnc(N4CC5(C4)CS(=O)(=O)C5)n3)nc2)cc1)c1cc(Cl)c(OCCCl)c(C#N)c1 [Compound 208]	–
540	CC(C)(c1ccc(-c2ccc(OCC3CC(CN4CC5(CCS(=N)(=O)CC5)C4)C3)cc2)cc1)c1cc(Cl)c(OCCCl)c(C#N)c1 (centres unmarked) [Compound 311]	–
820	CC(C)(c1ccc(-c2ccc(C#Cc3ncc(P(C)(C)=O)cn3)cc2)cc1)c1cc(Cl)c(OCCCl)c(C#N)c1 [Compound 282]	–
390	CC(C)(c1ccc(-c2ccc(/C=C\c3cnc(P(C)(C)=O)nc3)c(C#N)c2)cc1)c1cc(Cl)c(OCCCl)c(C#N)c1 [Compound 269]	–
1280	CC(C)(c1ccc(-c2ccc(OCc3ccnc(N4CC5(CC(=O)C5)C4)n3)cc2)cc1)c1cc(Cl)c(OCCCl)c(C#N)c1 [Compound 122]	–
540	CC(C)(c1ccc(-c2ccc(OCc3ccnc(N4CCCS4(=O)=O)n3)cc2)cc1)c1cc(Cl)c(OCCCl)c(C#N)c1 [Compound 265]	–
74	CC(C)(c1ccc(-c2ccc(/C=C/c3cnc(N=S4(=O)CCOCC4)nc3)cc2)cc1)c1cc(Cl)c(OCCCl)c(C#N)c1 [Compound 293]	–
1010	CC(C)(c1ccc(-c2ccc(OCc3ccnc(N=S4(=O)CCN(CC(F)F)CC4)n3)cc2)cc1)c1cc(Cl)c(OCCCl)c(C#N)c1 [Compound 239]	–
1050	CC(C)(c1ccc(-c2ccc(OCc3ccnc(N4CC5(C4)CS(=O)(=O)C5)n3)cn2)cc1)c1cc(Cl)c(OCCCl)c(C#N)c1 [Compound 84]	–
650	CC(C)(c1ccc(-c2ccc(C#Cc3ccnc(N=S4(=O)CCCC4)n3)cc2)cc1)c1cnc2c(cnn2CCCl)c1 [Compound 240]	–
490	CC(C)(c1ccc(-c2ccc(OCC3CC(CN4CC5(CCS(=O)(=O)CC5)C4)C3)cc2)cc1)c1cc(Cl)c(OCCCl)c(C#N)c1 (centres unmarked) [Compound 303]	–
390	CC(C)(c1ccc(-c2ccc(OCc3ccnc(N4CC5(CC(O)C5)C4)n3)cc2)cc1)c1cc(Cl)c(OCCCl)c(C#N)c1 [Compound 165]	–
500	Cn1ncc2c1CCS(=O)(=Nc1nccc(COc3ccc(-c4ccc(C(C)(C)c5cc(Cl)c(OCCCl)c(C#N)c5)cc4)cc3)n1)C2 (centres unmarked) [Compound 281]	–
970	CC(C)(c1ccc(-c2ccc(OCCN3CC4(C3)CS(=O)(=O)C4)cc2)cc1)c1cc(Cl)c(OCCCl)c(C#N)c1 [Compound 299]	–
1240	CC(C)(c1ccc(-c2ccc(OC[C@@H]3CCOC3)cc2)cc1)c1cc(Cl)c(OCCCl)c(C#N)c1 [Compound 171]	–
1320	CC1(NS(C)(=O)=O)CN(c2nccc(COc3ccc(-c4ccc(C(C)(C)c5cc(Cl)c(OCCCl)c(C#N)c5)cc4)cc3)n2)C1 [Compound 90]	–
300	CC(C)(c1ccc(-c2ccc(OCc3ccnc(N4CC5(C4)CN(S(C)(=O)=O)C5)n3)cc2)cc1)c1cc(Cl)c(OCCCl)c(C#N)c1 [Compound 105]	–
360	CC(C)(c1ccc(-c2ccc(OCC3CCOCC3)cn2)cc1)c1cc(Cl)c(OCCCl)c(C#N)c1 [Compound 169]	–
820	CC(C)(c1ccc(-c2ccc(/C=C/c3ccnc(N=S4(=O)CCOCC4)n3)cc2)cc1)c1cc(Cl)c(OCCCl)c(C#N)c1 [Compound 294]	–
